Reference: ChEMBL document CHEMBL3872259, “Synthesis, characterization, and in vitro SAR evaluation of N,N'-bis(arylmethyl)-C2-alkyl substituted imidazolium salts” (Bioorg Med Chem Lett, 2017)

Experiments:
[1] = Antiproliferative activity against human NCI-H522 cells assessed as cell growth at 10 uM measured after 48 hrs by sulforhodamine B assay relative to control; type: functional; conditions: NCI-H522, 48 h, read-out: Activity
[2] = Antiproliferative activity against human NCI-H460 cells assessed as reduction in cell viability measured after 72 hrs by MTT assay; type: functional, cell-based; conditions: NCI-H460, 72 h; for CC50: read-out: LC50 (the source's name)
[3] = Growth inhibition of human NCI-H522 cells measured after 48 hrs by sulforhodamine B assay; type: functional; conditions: NCI-H522, 48 h
[4] = Growth inhibition of human NCI-H226 cells measured after 48 hrs by sulforhodamine B assay; type: functional; conditions: NCI-H226, 48 h; for CC50: read-out: LC50 (the source's name)
[5] = Growth inhibition of human HOP62 cells measured after 48 hrs by sulforhodamine B assay; type: functional; conditions: HOP-62, 48 h; for CC50: read-out: LC50 (the source's name)
[6] = Antiproliferative activity against human HOP92 cells assessed as cell growth at 10 uM measured after 48 hrs by sulforhodamine B assay relative to control; type: functional; conditions: HOP-92, 48 h, read-out: Activity
[7] = Growth inhibition of human EKVX cells measured after 48 hrs by sulforhodamine B assay; type: functional; conditions: for CC50: read-out: LC50 (the source's name)
[8] = Growth inhibition of human NCI-H23 cells measured after 48 hrs by sulforhodamine B assay; type: functional; conditions: NCI-H23, 48 h; for CC50: read-out: LC50 (the source's name)
[9] = Antiproliferative activity against human NCI-H1975 cells assessed as reduction in cell viability measured after 72 hrs by MTT assay; type: functional, cell-based; conditions: NCI-H1975, 72 h
[10] = Antiproliferative activity against human NCI-H23 cells assessed as cell growth at 10 uM measured after 48 hrs by sulforhodamine B assay relative to control; type: functional; conditions: NCI-H23, 48 h, read-out: Activity
[11] = Antiproliferative activity against human A549/ATCC cells assessed as cell growth at 10 uM measured after 48 hrs by sulforhodamine B assay relative to control; type: functional; conditions: A549, 48 h, read-out: Activity
[12] = Aqueous solubility of the compound; type: physicochemical; conditions: buffer
[13] = Antiproliferative activity against human NCI-H460 cells assessed as cell growth at 10 uM measured after 48 hrs by sulforhodamine B assay relative to control; type: functional; conditions: NCI-H460, 48 h, read-out: Activity
[14] = Antiproliferative activity against human EKVX cells assessed as cell growth at 10 uM measured after 48 hrs by sulforhodamine B assay relative to control; type: functional; conditions: read-out: Activity
[15] = Growth inhibition of human NCI-H322M cells measured after 48 hrs by sulforhodamine B assay; type: functional; conditions: for CC50: read-out: LC50 (the source's name)
[16] = Antiproliferative activity against human HOP62 cells assessed as cell growth at 10 uM measured after 48 hrs by sulforhodamine B assay relative to control; type: functional; conditions: HOP-62, 48 h, read-out: Activity
[17] = Antiproliferative activity against human HCC827 cells assessed as reduction in cell viability measured after 72 hrs by MTT assay; type: functional, cell-based; conditions: HCC827, 72 h
[18] = Antiproliferative activity against human NCI-H226 cells assessed as cell growth at 10 uM measured after 48 hrs by sulforhodamine B assay relative to control; type: functional; conditions: NCI-H226, 48 h, read-out: Activity
[19] = Antiproliferative activity against human A549 cells assessed as reduction in cell viability measured after 72 hrs by MTT assay; type: functional, cell-based; conditions: A549, 72 h
[20] = Antiproliferative activity against human NCI-H322M cells assessed as cell growth at 10 uM measured after 48 hrs by sulforhodamine B assay relative to control; type: functional; conditions: read-out: Activity
[21] = Growth inhibition of human HOP92 cells measured after 48 hrs by sulforhodamine B assay; type: functional; conditions: HOP-92, 48 h; for CC50: read-out: LC50 (the source's name)

## Cc1n(Cc2ccc3ccccc3n2)cc[n+]1Cc1ccc2ccccc2c1.[Br-]
[1]
  growth at 10 µM: 3.95%
[2]
  GI50: 0.959 µM
  IC50: 2 µM
  TGI: 14.4 µM
  CC50: 47 µM
[3]
  GI50: 0.271 µM
  LC50 (50% lethal concentration): 12.4 µM
  TGI: 1.46 µM
[4]
  GI50: 1.86 µM
  TGI: 10.9 µM
  CC50: 47.5 µM
[5]
  GI50: 1.53 µM
  TGI: 6.66 µM
  CC50: 34.5 µM
[6]
  growth at 10 µM: -6.1%
[7]
  GI50: 3.93 µM
  TGI: 27.6 µM
  CC50: > 100 µM
[8]
  GI50: 1.83 µM
  TGI: 13.4 µM
  CC50: 62 µM
[9]
  IC50: < 1 µM
[10]
  growth at 10 µM: 2.01%
[11]
  growth at 10 µM: 33.5%
[12]
  solubility: < 5 mM
[13]
  growth at 10 µM: 10.2%
[14]
  growth at 10 µM: 48.3%
[15]
  GI50: 3.27 µM
  TGI: 14.7 µM
  CC50: 40.4 µM
[16]
  growth at 10 µM: 13.3%
[17]
  IC50: 9 µM
[18]
  growth at 10 µM: 12.7%
[19]
  GI50: 1.31 µM
  IC50: 3 µM
  LC50: 43.5 µM
  TGI: 13.1 µM
[20]
  growth at 10 µM: 26%
[21]
  GI50: 0.518 µM
  TGI: 3.81 µM
  CC50: 27 µM

## CCc1n(Cc2ccc3ccccc3c2)cc[n+]1Cc1ccc2ccccc2n1.[Cl-]
[9]
  IC50: < 1 µM
[12]
  solubility: > 10 mM
[17]
  IC50: 2 µM

## [Cl-].c1ccc(-c2n(Cc3ccc4ccccc4n3)cc[n+]2Cc2ccc3ccccc3c2)cc1
[2]
  IC50: 3 µM
[9]
  IC50: 2 µM
[12]
  solubility: > 10 mM
[17]
  IC50: 6 µM
[19]
  IC50: 4 µM

## [Cl-].c1ccc(-c2n(Cc3ccc4ccccc4n3)cc[n+]2Cc2ccc3ccccc3n2)cc1
[2]
  IC50: 8 µM
[9]
  IC50: 2 µM
[12]
  solubility: > 80 mM
[17]
  IC50: 8 µM
[19]
  IC50: 14 µM

## OCc1n(Cc2ccc3ccccc3c2)cc[n+]1Cc1ccc2ccccc2c1.[Br-]
[2]
  IC50: 14 µM
[6]
  growth at 10 µM: -2.81%
[9]
  IC50: 7 µM
[10]
  growth at 10 µM: 67.7%
[11]
  growth at 10 µM: 68.6%
[12]
  solubility: < 0.5 mM
[13]
  growth at 10 µM: 53.1%
[14]
  growth at 10 µM: 83.3%
[16]
  growth at 10 µM: 75%
[17]
  IC50: 12 µM
[18]
  growth at 10 µM: 61.6%
[19]
  IC50: > 30 µM
[20]
  growth at 10 µM: 78.9%

## CCCc1n(Cc2ccc3ccccc3n2)cc[n+]1Cc1ccc2ccccc2c1.[Cl-]
[1]
  growth at 10 µM: -0.78%
[2]
  GI50: 0.658 µM
  IC50: 3 µM
  TGI: 10.6 µM
  CC50: 46.5 µM
[3]
  GI50: 0.249 µM
  LC50 (50% lethal concentration): 4.59 µM
  TGI: 1.13 µM
[4]
  GI50: 1.2 µM
  TGI: 7.6 µM
  CC50: 39.7 µM
[5]
  GI50: 1.63 µM
  TGI: 5.38 µM
  CC50: 26.1 µM
[6]
  growth at 10 µM: -18.6%
[7]
  GI50: 2.16 µM
  TGI: 14.9 µM
  CC50: 52.7 µM
[8]
  GI50: 0.479 µM
  TGI: 10.6 µM
  CC50: 52 µM
[9]
  IC50: 2 µM
[10]
  growth at 10 µM: -11.6%
[11]
  growth at 10 µM: 39.1%
[12]
  solubility: > 10 mM
[13]
  growth at 10 µM: 7.73%
[14]
  growth at 10 µM: 41.6%
[15]
  GI50: 3.46 µM
  TGI: 15 µM
  CC50: 39.6 µM
[16]
  growth at 10 µM: 8.38%
[17]
  IC50: 6 µM
[18]
  growth at 10 µM: 12.3%
[19]
  GI50: 1.88 µM
  IC50: 3 µM
  LC50: 37.3 µM
  TGI: 11.8 µM
[20]
  growth at 10 µM: 25.7%
[21]
  GI50: 0.188 µM
  TGI: 1.12 µM
  CC50: 9.13 µM
